Assay [1] addresses T1, CDK2/Cyclin E complex (Homo sapiens, UniProt P24941).
T1 construct: purchased Eurofins 14-475
The experiment in a line: CDK2/Cyclin E fluorescence-based microfluidic mobility shift assay (CDK2 Biochemical Caliper Assay). The settings on record: read-out: Biochemical CDK2/CyclinE Caliper IC50. Summed up:
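Microfluidic mobility-shift readout after EDTA termination measured phosphorylation of fluorescent FL Peptide 18 (1.5 uM final) in a 20 hr room-temperature reaction. Compounds were tested at 11 concentrations (3-fold).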

Assay [2] has as its target target tagged with nanoLuciferase in 293-NB2 cells (Homo sapiens, UniProt P24941). The experiment in a line: nanoBRET TE Intracellular Kinase Assay (Cell nanoBRET Assay). Format: cell-based. As to the method: Compounds described herein were also tested in a nanoBRET TE Intracellular Kinase Assay. Test compounds were prepared in a DMSO stock solution. 45 uL of stock solution was transferred to a 384 well plate (Greiner, 781201), and a 3-fold 11-point dilution was performed. 293-NB2 cells expressing target tagged with nanoLuciferase were diluted in cell growth media (DMEM+10% FBS+1% Pen/Strep media) and a 40 uL cell solution of 7.5E4 cells/mL was seeded in a separate 384 well cell culture plate and incubated overnight at 37° C./5% CO2/100% humidity. […] 80 nL of each concentration of compound was transferred from the compound plate to a corresponding well in the cell culture plate by Echo550 liquid handler. The plates were incubated for 2 hrs at 37° C./5% CO2/100% humidity. […] Chemiluminescence was then read on an EnVision reader (PerkinElmer).
In general terms: In BRET a luciferase serves as donor, and the signal depends on an acceptor being close.

As for `CC(C)NC(=O)O[C@@H]1CC[C@H](c2cc(NC(=O)Cc3cnc4ncnn4c3)n[nH]2)C1` [Example 107], the IC50 in assay [1] is 250 to 1000 nM; in assay [2], 1000 to 100000 nM.
The matching figures for `Cc1cc(CC(=O)Nc2cc([C@H]3C[C@@H](OC(=O)NC(C)C)C3)[nH]n2)on1` [Example 110]: not above 100 nM and 1000 to 100000 nM.
`CCC(=O)O[C@@H]1CC[C@H](c2cc(NC(=O)Cc3cc(C)no3)n[nH]2)C1` [Example 115]: the IC50 in assay [1] lay in the range of 100 to 250 nM; in assay [2], 1000 to 100000 nM.
Consider `Cc1cc(CC(=O)Nc2cc([C@H]3CC[C@@H](OC(=O)NC(C)C)CC3)[nH]n2)on1` [Example 116], for which the IC50 in assay [1] is not above 100 nM; in assay [2] it was 250 to 1000 nM.

(Values after patent US20240190855A1 (Relay Therapeutics, Inc., priority 2021, published 2024).)
